For seven compounds, IC50, inhibition and Activity results are on record in ChEMBL document CHEMBL5579867, “Ligand-Based Pharmacophoric Design and Anti-inflammatory Evaluation of Triazole Linked Semisynthetic Labdane Conjugates” (ACS Med Chem Lett, 2024).

The source made the active and inactive calls. No cut-off for these calls is given here.

Data set [1] has as its system RAW264.7. As to the kind of experiment: Antiinflammatory activity in LPS-induced mouse RAW264.7 cells assessed as inhibition of NO production pretreated for 1 hr followed by LPS stimulation and measured after 23 hrs by Griess method. Format: functional, cell-based. A general note: Nitrite, measured by Griess reagent, commonly stands in for NO production.
The test system of data set [2] is RAW264.7. As to the kind of experiment: Inhibition of LPS-induced NF-kappaB activation in mouse RAW264.7 cells assessed as inhibition of p65 phosphorylation at 20 uM pretreated for 1 hr followed by LPS stimulation and measured after 24 hrs by Western blot analysis. Format: cell-based. Particulars: time 25.0 hrs. On the technique in general: Immunoblotting shows a protein as a band on a membrane.

In data set [3] the target is T1, Polyunsaturated fatty acid lipoxygenase ALOX15 (Homo sapiens, UniProt P16050).
T1 sequence (P16050 whole entry): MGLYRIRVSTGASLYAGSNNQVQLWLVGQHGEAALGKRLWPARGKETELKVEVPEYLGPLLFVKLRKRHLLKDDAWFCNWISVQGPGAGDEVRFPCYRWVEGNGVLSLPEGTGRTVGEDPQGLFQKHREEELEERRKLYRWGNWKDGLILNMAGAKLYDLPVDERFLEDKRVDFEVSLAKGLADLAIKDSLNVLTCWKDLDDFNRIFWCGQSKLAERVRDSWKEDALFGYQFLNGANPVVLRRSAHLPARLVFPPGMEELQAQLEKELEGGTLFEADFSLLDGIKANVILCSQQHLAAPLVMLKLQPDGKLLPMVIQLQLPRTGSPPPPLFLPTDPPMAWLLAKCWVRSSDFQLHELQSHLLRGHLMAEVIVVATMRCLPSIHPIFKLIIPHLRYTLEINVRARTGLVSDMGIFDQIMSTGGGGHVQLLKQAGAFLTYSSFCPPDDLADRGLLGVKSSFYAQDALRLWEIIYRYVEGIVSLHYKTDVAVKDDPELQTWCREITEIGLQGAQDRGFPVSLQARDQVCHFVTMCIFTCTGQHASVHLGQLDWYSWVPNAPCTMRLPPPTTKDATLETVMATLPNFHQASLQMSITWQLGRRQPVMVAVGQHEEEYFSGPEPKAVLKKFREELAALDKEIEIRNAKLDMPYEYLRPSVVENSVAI
In words: Inhibition of LOX-15 (unknown origin).

Data set [4] in a line: Inhibition of TNF-alpha induced ICAM-1 protein expression in HUVEC cells. The format is functional, cell-based. Particulars: Homo sapiens.
The test system of data set [5] is RAW264.7. In words: Cytotoxicity against mouse RAW264.7 cells assessed as reduction in cell viability at 1 to 20 uM incubated for 24 hrs by MTT assay. The format is toxicity, cell-based. To be noted: raw264.7, 24 h, dose 1-20 µM. A general note: Formazan colour is commonly taken as a measure of viable cells.
Data set [6] relates to RAW264.7. As to the kind of experiment: Antiinflammatory activity in LPS-induced mouse RAW264.7 cells assessed as inhibition of NO production at 1 to 20 uM pretreated for 1 hr followed by LPS stimulation and measured after 23 hrs by Griess method. Format: functional, cell-based. Particulars: dose 1-20 µM, time 24.0 hrs.
The test system of data set [7] is RAW264.7. As to the kind of experiment: Antiinflammatory activity in LPS-induced mouse RAW264.7 cells assessed as inhibition of TNF-alpha production at 20 uM pretreated for 1 hr followed by LPS stimulation and measured after 24 hrs by ELISA. The format is functional, cell-based. To be noted: time 25.0 hrs.
Data set [8] relates to RAW264.7. In words: Antiinflammatory activity in LPS-induced mouse RAW264.7 cells assessed as inhibition of IL-6 production at 20 uM pretreated for 1 hr followed by LPS stimulation and measured after 24 hrs by ELISA. Particulars: time 25.0 hrs. Format: functional, cell-based.
Data set [9] deals with RAW264.7. As to the kind of experiment: Antiinflammatory activity in LPS-induced mouse RAW264.7 cells assessed as inhibition of TNF-alpha production pretreated for 1 hr followed by LPS stimulation and measured after 24 hrs by ELISA. Particulars: dose 1-10 µM, time 25.0 hrs. The format is functional, cell-based.
For data set [10], the system named is RAW264.7. In words: Antiinflammatory activity in LPS-induced mouse RAW264.7 cells assessed as inhibition of IL-6 production pretreated for 1 hr followed by LPS stimulation and measured after 24 hrs by ELISA. Format: functional, cell-based. To be noted: dose 1-10 µM, time 25.0 hrs.
Data set [11] deals with RAW264.7. In words: Antiinflammatory activity in LPS-induced mouse RAW264.7 cells assessed as increase in IL-10 production pretreated for 1 hr followed by LPS stimulation and measured after 24 hrs by ELISA. Particulars: dose 1-10 µM, time 25.0 hrs. The format is functional, cell-based.
Data set [12] relates to RAW264.7. As to the kind of experiment: Antiinflammatory activity in LPS-induced mouse RAW264.7 cells assessed as reduction in COX-2 protein expression pretreated for 1 hr followed by LPS stimulation and measured after 24 hrs by Western blot analysis. Format: functional, cell-based. To be noted: dose 10-20 µM, time 25.0 hrs.
For data set [13], the system named is RAW264.7. As to the kind of experiment: Antiinflammatory activity in LPS-induced mouse RAW264.7 cells assessed as reduction in iNOS protein expression pretreated for 1 hr followed by LPS stimulation and measured after 24 hrs by Western blot analysis. Format: functional, cell-based. To be noted: dose 10-20 µM, time 25.0 hrs.
Data set [14] deals with RAW264.7. In words: Inhibition of LPS-induced NF-kappaB activation in mouse RAW264.7 cells assessed as inhibition of p65 phosphorylation pretreated for 1 hr followed by LPS stimulation and measured after 24 hrs by Western blot analysis. The format is cell-based. Particulars: dose 10-20 µM, time 25.0 hrs.
Data set [15] relates to RAW264.7. As to the kind of experiment: Effect on NF-kappaB p65 protein expression in LPS-induced mouse RAW264.7 cells at 10 to 20 uM pretreated for 1 hr followed by LPS stimulation and measured after 24 hrs by Western blot analysis. To be noted: dose 10-20 µM, time 25.0 hrs. Format: functional, cell-based.
In data set [16] the test system is RAW264.7. In words: Inhibition of LPS-induced NF-kappaB activation in mouse RAW264.7 cells assessed as reduction in nuclear translocation pretreated for 1 hr followed by LPS stimulation and measured after 24 hrs by immunofluorescence staining based fluorescence microscopic analysis. The format is cell-based. Particulars: dose 10-20 µM, time 25.0 hrs.

As usually defined, the IC50 is the midpoint of a concentration-inhibition curve. Turning to `COc1ccc2c(c1)c(CC(=O)O)c(C)n2C(=O)c1ccc(Cl)cc1` [INDOMETHACIN], the IC50 in the data set with RAW264.7 [1] amounted to 7.31 µM. For the same compound, the inhibition entry with RAW264.7 [2] is “Active”.

Compound `CN(C)c1ccc(/C=C/C(=O)c2cccc(-n3cc(CN4C(=O)C(=O)c5ccccc54)nn3)c2)cc1` registered an IC50 in data set [3] of 1.58 µM.

Regarding `COc1ccc(N/N=C2\C(=O)N(CCCn3cncn3)c3ccc(Br)cc32)cc1`, the IC50 in data set [4] is 20 µM.

As to `C=C1CC[C@H]2C(C)(C)CCC[C@]2(C)[C@H]1C/C=C(/C=O)CC(=O)OCc1cn(CCN2C(=O)C(=O)c3ccccc32)nn1`, the Activity entry in the data set with RAW264.7 [5] is “Non-Toxic”; in the data set with RAW264.7 [9] it was “Dose-Dependent Effect”; in the data set with RAW264.7 [10] it was “Dose-Dependent Effect”; with RAW264.7 [11], “Dose-Dependent Effect”; with RAW264.7 [12], “Dose-Dependent Effect”; with RAW264.7 [13] it was “Dose-Dependent Effect”. Further, the outcome in the data set with RAW264.7 [6], in the data set with RAW264.7 [7] and in the data set on RAW264.7 [8] was Active. Also, the IC50 in the data set on RAW264.7 [1] is 3.13 µM. Further, the inhibition result in the data set on RAW264.7 [14] and with RAW264.7 [16] was “Dose-Dependent Effect” in each case. Besides, the outcome in the data set on RAW264.7 [15] was inactive.

Turning to `C=C1CC[C@H]2C(C)(C)CCC[C@]2(C)[C@H]1C/C=C(/C=O)CC(=O)OCc1cn(CCN2C(=O)C(=O)c3cc(I)ccc32)nn1`, the Activity result in the data set on RAW264.7 [5] is on record as “Non-Toxic”. In the data set on RAW264.7 [6], the outcome was inactive. The outcome in the data set on RAW264.7 [7] and in the data set on RAW264.7 [8] was Active.

As to `C=C1CC[C@H]2C(C)(C)CCC[C@]2(C)[C@H]1C/C=C(/C=O)CC(=O)OCc1cn(CCN2C(=O)C(=O)c3cc(Cl)ccc32)nn1`, in the data set with RAW264.7 [5], the Activity entry is reported as “Non-Toxic”. Also, in the data set with RAW264.7 [6], the outcome was inactive. Further, the outcome with RAW264.7 [7] and in the data set on RAW264.7 [8] was Active.

For the compound `C=C1CC[C@H]2C(C)(C)CCC[C@]2(C)[C@H]1C/C=C(/C=O)CC(=O)OCc1cn(CCN2C(=O)C(=O)c3cc(F)ccc32)nn1`, the Activity result with RAW264.7 [5] is “Non-Toxic”. Besides, the outcome with RAW264.7 [6] was inactive. Moreover, the result in the data set with RAW264.7 [7] and with RAW264.7 [8] was Active.
